Laboratory results as given in ChEMBL document CHEMBL5154944, “Discovery of Aryloxyphenyl-Heptapeptide Hybrids as Potent and Selective Matrix Metalloproteinase-2 Inhibitors for the Treatment of Idiopathic Pulmonary Fibrosis” (J Med Chem, 2022).
pIC50: −log10 of the molar value. Calls of active or inactive are those of the source. The calls are words filed in the database; no cut-off is given here. Non-standard residues stand in square brackets, D forms with d. Residues, ends and D or L forms follow the SMILES beside them. *: point of attachment. Benzoyl(4-OPh(4-CONH2)) = NC(=O)c1ccc(Oc2ccc(C(=O)*)cc2)cc1; NMeE = CN[C@@H](CCC(=O)O)C(=O)O; β3hP = O=C(O)C[C@@H]1CCCN1; Dab = NCC[C@H](N)C(=O)O; Ava = NCCCCC(=O)O

What was measured:
HepG2 [1] = assay: Cytotoxicity against human HepG2 cells assessed as reduction in cell viability at 50 uM after 48 hrs by CCK8 assay; assay type: functional
[2] = Solubility of the compound in acetate buffer at pH 4.0 by HPLC analysis; assay type: physicochemical
Interstitial collagenase = target: T1, Interstitial collagenase (Homo sapiens, UniProt P03956); assay: Inhibition of recombinant human MMP1 using MOCAc-Lys-Pro-Leu-Gly-Leu-A2pr(Dnp)-Ala-Arg-NH2 as substrate preincubated for 15 mins followed by substrate addition by fluroscence based assay
T1 sequence (P03956 whole entry): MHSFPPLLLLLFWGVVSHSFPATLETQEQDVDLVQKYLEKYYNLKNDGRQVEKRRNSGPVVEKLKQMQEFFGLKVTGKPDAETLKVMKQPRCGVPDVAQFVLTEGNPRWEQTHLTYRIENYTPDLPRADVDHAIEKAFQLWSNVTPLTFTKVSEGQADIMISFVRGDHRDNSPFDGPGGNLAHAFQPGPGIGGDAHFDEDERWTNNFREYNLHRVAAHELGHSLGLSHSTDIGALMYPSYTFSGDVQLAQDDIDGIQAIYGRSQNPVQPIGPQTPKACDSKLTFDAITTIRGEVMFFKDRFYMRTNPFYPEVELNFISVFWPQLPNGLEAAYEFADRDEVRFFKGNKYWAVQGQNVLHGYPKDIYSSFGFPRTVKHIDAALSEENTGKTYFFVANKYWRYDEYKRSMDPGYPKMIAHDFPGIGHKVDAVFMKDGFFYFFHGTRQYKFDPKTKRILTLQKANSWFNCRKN

[3] = Solubility of the compound in phosphate buffer at pH 9 by HPLC analysis; assay type: physicochemical
Mus musculus [4] = assay: Antifibrotic activity in C57BL/6N mouse model of bleomycin-induced idiopathic pulmonary fibrosis assessed as reduction of total collagen content at 0.03 to 1 mg/kg/day, sc via osmotic pumps dosed for 14 days; assay type: functional, organism-based; conditions: dose 0.03-1 mg/kg/day, time 14.0 day
[5] = Metabolic stability in human serum assessed as parent compound remaining incubated for 6 hrs by LC-MS/MS analysis; assay type: ADME, cell-free; conditions: read-out: Stability
CYP3A4 = CYP3A4 (Homo sapiens, UniProt P08684); assay: Inhibition of CYP3A4 in human liver microsomes at 10 uM using midazolam as substrate preincubated for 5 mins followed by addition of NADPH measured after 5 mins by LC/MS/MS analysis relative to control; assay type: ADME, Microsome; conditions: probe midazolam
[6] = Free drug concentration in C57BL/6N mouse plasma at 0.03 mg/kg/day, sc via osmotic pumps dosed for 14 days; assay type: ADME, organism-based; conditions: in vivo, 336 h, time 14 day
physchem [7] = conditions: phosphate buffer, pH 7.4
physchem [8] = conditions: buffer, pH 7.4
[9] = Protein binding in mouse serum assessed as free fraction at 10 ug/ml incubated for 6 hrs by equilibrium dialysis based LC-MS/MS assay; assay type: ADME, cell-free; conditions: at 10 µg/mL
Stromelysin-1 = Stromelysin-1 (Homo sapiens, UniProt P08254); assay: Inhibition of recombinant human MMP3 using MOCAc-Lys-Pro-Leu-Gly-Leu-A2pr(Dnp)-[…] as substrate preincubated for 15 mins followed by substrate addition by fluroscence based assay
CYP2C9 = CYP2C9 (Homo sapiens, UniProt P11712); assay: Inhibition of CYP2C9 in human liver microsomes at 10 uM using diclofenac as substrate preincubated for 5 mins followed by addition of NADPH measured after 5 mins by LC/MS/MS analysis relative to control; assay type: ADME, Microsome; conditions: probe diclofenac, time 10 min
[10] = target: Voltage-gated inwardly rectifying potassium channel KCNH2 (Homo sapiens, UniProt Q12809); assay: Inhibition of human ERG expressed in CHO cells by Qpatch-clamp method; assay type: toxicity, cell-based
CYP2C19 = CYP2C19 (Homo sapiens, UniProt P33261); assay: Inhibition of CYP2C19 in human liver microsomes at 10 uM using mephenytoin as substrate preincubated for 5 mins followed by addition of NADPH measured after 10 mins by LC/MS/MS analysis relative to control; assay type: ADME, Microsome; conditions: probe mephenytoin, time 15 min
[11] = target: Matrix metalloproteinase-14 (Homo sapiens, UniProt P50281); assay: Inhibition of recombinant human MMP14 using MOCAc-Lys-Pro-Leu-Gly-Leu-A2pr(Dnp)-Ala-Arg-NH2 as substrate preincubated for 15 mins followed by substrate addition by fluroscence based assay
Neutrophil collagenase = Neutrophil collagenase (Homo sapiens, UniProt P22894)
Matrilysin = target: T2, Matrilysin (Homo sapiens, UniProt P09237)
T2 sequence (P09237 whole entry): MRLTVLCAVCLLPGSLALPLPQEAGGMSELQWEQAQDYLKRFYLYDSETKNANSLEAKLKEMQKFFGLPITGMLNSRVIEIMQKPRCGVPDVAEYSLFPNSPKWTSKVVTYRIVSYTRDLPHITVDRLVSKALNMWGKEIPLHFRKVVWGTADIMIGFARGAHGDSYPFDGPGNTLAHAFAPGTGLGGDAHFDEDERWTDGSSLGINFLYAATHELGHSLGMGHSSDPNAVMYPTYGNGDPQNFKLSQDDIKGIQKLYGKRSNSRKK

[12] = Chemical stability of the compound in acetate buffer at pH 4.0 assessed as residual rate incubated for 2 weeks by HPLC analysis; assay type: physicochemical; conditions: read-out: Stability
HepG2 [13] = assay: Cytotoxicity against human HepG2 cells assessed as reduction in cell viability at 10 uM after 48 hrs by CCK8 assay; assay type: functional
[14] = Protein binding in human serum assessed as free fraction at 10 ug/ml incubated for 6 hrs by equilibrium dialysis based LC-MS/MS assay; assay type: ADME, cell-free; conditions: at 10 µg/mL
CYP2D6 = CYP2D6 (Homo sapiens, UniProt P10635); assay: Inhibition of CYP2D6 in human liver microsomes at 10 uM using bufuralol as substrate preincubated for 5 mins followed by addition of NADPH measured after 10 mins by LC/MS/MS analysis relative to control; assay type: ADME, Microsome; conditions: probe bufuralol, time 15 min
CYP1A2 = CYP1A2 (Homo sapiens, UniProt P05177); assay: Inhibition of CYP1A2 in human liver microsomes at 10 uM using phenacetin as substrate for 5 mins followed by NADPH addition and measured after 10 mins by LC/MS/MS analysis relative to control; assay type: ADME, Microsome; conditions: probe phenacetin, time 15 min
[15] = Volume of distribution at steady state in fasted Sprague-Dawley rat at 1 mg/kg, iv by LC-MS/MS analysis; assay type: ADME, organism-based; conditions: in vivo, read-out: Vdss
[16] = target: Matrix metalloproteinase-9 (Homo sapiens, UniProt P14780)
physchem [17] = conditions: phosphate buffer, pH 9
[18] = Solubility of the compound in phosphate buffer at pH 7.4 by HPLC analysis; assay type: physicochemical
[19] = Half life in fasted Sprague-Dawley rat at 1 mg/kg, iv by LC-MS/MS analysis; assay type: ADME, organism-based; conditions: in vivo
[20] = Metabolic stability in rat hepatocytes assessed as parent compound remaining incubated for 1 hr by LC-MS/MS; assay type: ADME, cell-based, Hepatocyte; conditions: read-out: Stability
[21] = Clearance in fasted Sprague-Dawley rat at 1 mg/kg, iv by LC-MS/MS analysis; assay type: ADME, organism-based; conditions: in vivo
Mus musculus [22] = assay: Antifibrotic activity in C57BL/6N mouse model of bleomycin-induced idiopathic pulmonary fibrosis assessed as reduction of total collagen content at 0.03 mg/kg/day, sc via osmotic pumps dosed for 14 days; assay type: functional, organism-based; conditions: time 14.0 day
[23] = Metabolic stability in human hepatocytes assessed as parent compound remaining measured after 1 hr by LC-MS/MS analysis; assay type: ADME, cell-based, Hepatocyte; conditions: read-out: Stability
[24] = Volume of distribution at steady state in fasted Sprague-Dawley rat at 0.4 mg/kg, iv by LC-MS/MS analysis; assay type: ADME, organism-based; conditions: in vivo, read-out: Vdss
[25] = Half life in fasted Sprague-Dawley rat at 0.4 mg/kg, iv by LC-MS/MS analysis; assay type: ADME, organism-based; conditions: in vivo
Collagenase 3 = Collagenase 3 (Homo sapiens, UniProt P45452)
[26] = Clearance in fasted Sprague-Dawley rat at 0.4 mg/kg, iv by LC-MS/MS analysis; assay type: ADME, organism-based; conditions: in vivo
[27] = target: 72 kDa type IV collagenase (Homo sapiens, UniProt P08253)
Sequence of 72 kDa type IV collagenase (P08253 whole entry): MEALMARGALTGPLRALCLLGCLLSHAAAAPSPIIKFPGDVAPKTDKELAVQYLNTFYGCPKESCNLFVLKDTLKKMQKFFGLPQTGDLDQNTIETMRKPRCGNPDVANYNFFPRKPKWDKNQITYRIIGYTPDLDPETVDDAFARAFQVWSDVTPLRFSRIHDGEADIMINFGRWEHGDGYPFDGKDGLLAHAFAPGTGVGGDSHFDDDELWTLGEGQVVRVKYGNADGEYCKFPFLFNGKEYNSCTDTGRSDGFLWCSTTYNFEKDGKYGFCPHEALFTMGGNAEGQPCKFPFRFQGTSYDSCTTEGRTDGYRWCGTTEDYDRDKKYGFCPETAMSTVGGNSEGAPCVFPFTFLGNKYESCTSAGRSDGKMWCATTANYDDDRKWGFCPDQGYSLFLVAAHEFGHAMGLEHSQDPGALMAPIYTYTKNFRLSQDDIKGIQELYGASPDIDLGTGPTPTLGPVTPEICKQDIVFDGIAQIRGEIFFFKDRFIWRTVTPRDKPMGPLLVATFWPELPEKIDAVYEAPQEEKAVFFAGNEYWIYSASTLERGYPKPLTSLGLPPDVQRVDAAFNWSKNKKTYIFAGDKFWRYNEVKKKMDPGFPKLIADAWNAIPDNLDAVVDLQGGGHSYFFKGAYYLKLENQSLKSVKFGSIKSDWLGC

Sequence of Neutrophil collagenase (P22894 whole entry): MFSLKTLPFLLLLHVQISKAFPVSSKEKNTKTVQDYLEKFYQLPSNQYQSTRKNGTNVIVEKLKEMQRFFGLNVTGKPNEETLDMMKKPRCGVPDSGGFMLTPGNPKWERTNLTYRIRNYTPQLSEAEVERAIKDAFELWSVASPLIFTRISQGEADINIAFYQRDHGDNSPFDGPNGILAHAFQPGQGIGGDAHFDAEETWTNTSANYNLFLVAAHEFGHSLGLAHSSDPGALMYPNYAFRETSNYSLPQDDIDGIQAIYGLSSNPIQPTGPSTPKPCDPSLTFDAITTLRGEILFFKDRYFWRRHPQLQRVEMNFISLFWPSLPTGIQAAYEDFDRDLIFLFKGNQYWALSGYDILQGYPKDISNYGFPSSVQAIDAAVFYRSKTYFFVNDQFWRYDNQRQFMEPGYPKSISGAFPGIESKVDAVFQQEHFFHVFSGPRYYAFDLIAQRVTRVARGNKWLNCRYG
Sequence of Matrix metalloproteinase-9 (P14780 whole entry): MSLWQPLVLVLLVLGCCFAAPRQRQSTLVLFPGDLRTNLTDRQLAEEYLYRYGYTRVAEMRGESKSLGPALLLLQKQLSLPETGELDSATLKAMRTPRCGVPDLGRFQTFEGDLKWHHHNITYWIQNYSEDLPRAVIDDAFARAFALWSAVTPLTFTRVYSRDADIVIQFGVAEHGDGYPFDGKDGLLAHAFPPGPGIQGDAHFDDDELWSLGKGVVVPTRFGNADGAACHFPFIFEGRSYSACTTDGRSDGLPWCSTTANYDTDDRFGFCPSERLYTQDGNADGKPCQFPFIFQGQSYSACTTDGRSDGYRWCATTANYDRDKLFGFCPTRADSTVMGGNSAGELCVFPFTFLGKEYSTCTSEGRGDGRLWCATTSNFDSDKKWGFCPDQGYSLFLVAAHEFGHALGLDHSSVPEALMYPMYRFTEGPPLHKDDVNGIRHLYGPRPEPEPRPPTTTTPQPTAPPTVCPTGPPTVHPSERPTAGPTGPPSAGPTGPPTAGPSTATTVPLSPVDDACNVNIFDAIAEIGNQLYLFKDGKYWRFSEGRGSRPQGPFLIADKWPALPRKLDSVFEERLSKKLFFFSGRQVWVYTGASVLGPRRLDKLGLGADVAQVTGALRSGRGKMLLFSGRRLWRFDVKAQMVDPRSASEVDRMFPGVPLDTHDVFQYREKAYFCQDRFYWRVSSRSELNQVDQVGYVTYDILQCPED
Sequence of CYP3A4 (P08684 whole entry): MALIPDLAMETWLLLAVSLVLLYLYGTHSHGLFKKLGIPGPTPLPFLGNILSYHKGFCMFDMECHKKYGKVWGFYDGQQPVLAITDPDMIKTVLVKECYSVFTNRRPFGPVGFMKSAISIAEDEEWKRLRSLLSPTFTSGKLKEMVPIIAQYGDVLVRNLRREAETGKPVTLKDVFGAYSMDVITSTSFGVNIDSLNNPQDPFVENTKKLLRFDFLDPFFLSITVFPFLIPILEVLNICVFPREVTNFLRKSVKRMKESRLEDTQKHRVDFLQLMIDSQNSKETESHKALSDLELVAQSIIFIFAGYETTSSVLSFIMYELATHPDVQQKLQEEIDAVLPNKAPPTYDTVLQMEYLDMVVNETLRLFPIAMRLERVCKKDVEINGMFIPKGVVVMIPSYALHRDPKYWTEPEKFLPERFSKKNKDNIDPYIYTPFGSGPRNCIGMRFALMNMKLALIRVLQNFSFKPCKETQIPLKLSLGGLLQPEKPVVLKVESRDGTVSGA
Sequence of CYP2C19 (P33261 whole entry): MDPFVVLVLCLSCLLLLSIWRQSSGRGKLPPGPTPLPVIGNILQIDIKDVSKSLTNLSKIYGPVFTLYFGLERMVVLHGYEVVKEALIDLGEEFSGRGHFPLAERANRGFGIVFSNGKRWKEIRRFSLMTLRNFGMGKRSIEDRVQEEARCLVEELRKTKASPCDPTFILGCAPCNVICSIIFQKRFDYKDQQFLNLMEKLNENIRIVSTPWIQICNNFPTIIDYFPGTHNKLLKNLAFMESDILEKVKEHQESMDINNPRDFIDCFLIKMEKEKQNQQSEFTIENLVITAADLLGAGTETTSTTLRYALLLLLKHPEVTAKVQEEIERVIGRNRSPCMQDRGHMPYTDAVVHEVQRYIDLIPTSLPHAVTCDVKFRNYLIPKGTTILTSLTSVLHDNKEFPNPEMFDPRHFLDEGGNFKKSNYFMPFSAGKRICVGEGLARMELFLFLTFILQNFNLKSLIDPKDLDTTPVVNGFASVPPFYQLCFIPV
Sequence of CYP1A2 (P05177 whole entry): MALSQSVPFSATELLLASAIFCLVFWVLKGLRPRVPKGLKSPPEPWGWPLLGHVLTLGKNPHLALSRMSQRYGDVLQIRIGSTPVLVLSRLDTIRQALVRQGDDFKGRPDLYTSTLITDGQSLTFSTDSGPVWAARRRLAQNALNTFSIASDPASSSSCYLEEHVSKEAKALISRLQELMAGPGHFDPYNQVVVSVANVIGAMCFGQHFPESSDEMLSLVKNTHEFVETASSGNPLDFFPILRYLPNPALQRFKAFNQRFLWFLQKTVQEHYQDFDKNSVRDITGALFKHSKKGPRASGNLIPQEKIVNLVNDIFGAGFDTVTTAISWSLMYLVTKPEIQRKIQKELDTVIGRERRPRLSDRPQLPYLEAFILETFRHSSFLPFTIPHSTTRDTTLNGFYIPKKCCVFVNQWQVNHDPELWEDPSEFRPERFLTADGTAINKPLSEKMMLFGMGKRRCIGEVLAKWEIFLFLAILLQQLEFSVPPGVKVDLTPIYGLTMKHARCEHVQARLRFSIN
Sequence of CYP2C9 (P11712 whole entry): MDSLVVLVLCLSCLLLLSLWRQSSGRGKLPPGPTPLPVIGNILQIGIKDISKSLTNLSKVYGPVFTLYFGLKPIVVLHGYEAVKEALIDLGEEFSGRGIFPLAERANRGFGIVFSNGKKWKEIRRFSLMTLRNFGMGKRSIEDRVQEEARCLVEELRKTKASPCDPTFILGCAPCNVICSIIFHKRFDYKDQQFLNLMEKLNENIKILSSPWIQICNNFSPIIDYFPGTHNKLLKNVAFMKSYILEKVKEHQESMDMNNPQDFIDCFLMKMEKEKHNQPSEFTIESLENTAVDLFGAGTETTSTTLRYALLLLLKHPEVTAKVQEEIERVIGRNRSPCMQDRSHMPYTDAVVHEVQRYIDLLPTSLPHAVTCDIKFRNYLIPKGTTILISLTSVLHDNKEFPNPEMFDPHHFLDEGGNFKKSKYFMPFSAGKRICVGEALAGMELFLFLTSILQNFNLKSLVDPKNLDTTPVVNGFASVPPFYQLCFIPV
Sequence of CYP2D6 (P10635 whole entry): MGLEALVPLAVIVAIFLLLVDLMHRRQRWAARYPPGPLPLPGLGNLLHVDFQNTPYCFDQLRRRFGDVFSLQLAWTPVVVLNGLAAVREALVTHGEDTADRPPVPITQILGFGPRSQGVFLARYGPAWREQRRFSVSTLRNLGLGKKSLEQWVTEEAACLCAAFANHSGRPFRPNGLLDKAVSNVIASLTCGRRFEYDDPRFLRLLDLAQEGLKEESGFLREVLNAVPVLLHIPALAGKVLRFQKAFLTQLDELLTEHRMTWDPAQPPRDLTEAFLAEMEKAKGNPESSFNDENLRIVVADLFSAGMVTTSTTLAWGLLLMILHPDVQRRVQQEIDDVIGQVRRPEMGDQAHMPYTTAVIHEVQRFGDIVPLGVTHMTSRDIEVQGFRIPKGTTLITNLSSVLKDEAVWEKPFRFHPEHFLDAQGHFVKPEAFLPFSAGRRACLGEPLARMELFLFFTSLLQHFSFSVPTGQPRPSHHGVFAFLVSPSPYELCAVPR
Sequence of Stromelysin-1 (P08254 whole entry): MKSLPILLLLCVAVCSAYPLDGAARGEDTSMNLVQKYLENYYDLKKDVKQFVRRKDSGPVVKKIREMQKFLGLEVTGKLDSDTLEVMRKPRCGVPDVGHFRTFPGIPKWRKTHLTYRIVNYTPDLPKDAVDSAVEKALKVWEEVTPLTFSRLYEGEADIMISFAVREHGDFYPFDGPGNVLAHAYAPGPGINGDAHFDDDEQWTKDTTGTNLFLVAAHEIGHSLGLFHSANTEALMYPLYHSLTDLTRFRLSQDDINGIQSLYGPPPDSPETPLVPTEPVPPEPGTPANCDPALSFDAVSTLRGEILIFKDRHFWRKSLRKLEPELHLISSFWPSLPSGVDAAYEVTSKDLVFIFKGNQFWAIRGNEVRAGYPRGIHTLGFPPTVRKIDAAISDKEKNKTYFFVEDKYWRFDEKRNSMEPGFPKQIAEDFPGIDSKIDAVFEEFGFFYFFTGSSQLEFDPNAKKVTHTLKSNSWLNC

Structure (SMILES): CC(C)C[C@H](NC(=O)[C@H](CCN)NC(=O)[C@H](CC(=O)O)NC(=O)[C@H](CCC(=O)O)NC(=O)CCCCNC(=O)c1ccc(Oc2ccc(C(N)=O)cc2)cc1)C(=O)N(C)[C@@H](CCC(=O)O)C(=O)N1CCC[C@H]1CC(N)=O ({Benzoyl(4-OPh(4-CONH2))-Ava}-ED[Dab]L[NMeE][β3hP]-NH2)
- Activity (HepG2 [1]): -0.9%
- solubility [2]: > 18.2 mg/mL
- pIC50 (Interstitial collagenase): < 5.00
- solubility [3]: > 167 mg/mL
- Activity (Mus musculus [4]): Active
- remaining at 6 h [5]: 110%
- inhibition at 5 min, 10 µM (CYP3A4): -2.4%
- Cp(f) [6]: 0.48 nM
- remaining at 336 h (physchem [7]): 95.1%
- logD (physchem [8]): -0.21
- fraction unbound at 6 h, 10 ug/ml [9]: 0.518
- pIC50 (Stromelysin-1): < 5.00
- inhibition at 5 min, 10 µM (CYP2C9): 1.6%
- pIC50 [10]: < 4.00
- inhibition at 10 min, 10 µM (CYP2C19): -9.1%
- pIC50 [11]: 5.65
- pIC50 (Neutrophil collagenase): 5.43
- pIC50 (Matrilysin): < 5.00
- remaining at 336 h [12]: 88%
- Activity (HepG2 [13]): 1.1%
- fraction unbound at 6 h, 10 ug/ml [14]: 0.552
- inhibition at 10 min, 10 µM (CYP2D6): -2.5%
- inhibition at […], 10 µM (CYP1A2): -4.2%
- Vd [15]: 0.233 L/kg
- pIC50 [16]: < 5.07
- remaining at 336 h (physchem [17]): 95.4%
- solubility [18]: > 24.2 mg/mL
- half-life [19]: 14 min
- remaining at 1 h, 1 µM [20]: 98.2%
- clearance [21]: 11.7 mL/min/kg
- Activity (Mus musculus [22]): Active
- remaining at 1 h [23]: 101%

Structure (SMILES): CC(C)C[C@H](NC(=O)[C@H](CCN)NC(=O)[C@H](CC(=O)O)NC(=O)[C@H](CC(N)=O)NC(=O)CCCCNC(=O)c1ccc(Oc2ccc(C(N)=O)cc2)cc1)C(=O)N(C)[C@@H](CCC(=O)O)C(=O)N1CCC[C@H]1CC(N)=O ({Benzoyl(4-OPh(4-CONH2))-Ava}-ND[Dab]L[NMeE][β3hP]-NH2)
- Vd [24]: 0.267 L/kg
- half-life [25]: 16 min
- remaining at 336 h (physchem [7]): 89.4%
- pIC50 (Collagenase 3): 7.24
- clearance [26]: 12 mL/min/kg
- remaining at 336 h [12]: 95.8%
- pIC50 [27]: 10.29
- remaining at 336 h (physchem [17]): 78%
- remaining at 1 h, 1 µM [20]: 101%
